The values below come from patent publication US10765754B2, “Compositions and methods related to inhibition of respiratory syncytial virus entry” (priority 2015, dated 2020).

Starred links: 1 amine or outer side, 2 acyl side, 3 side chain; linkers in the order of their positions; H or OH if unused. Positions of bridges follow the written chain, without caps; N, C: chain ends. Non-standard residues stand in square brackets, D forms with d. Residues, ends and D or L forms follow the SMILES beside them. Chains are numbered I, II in the order given. No end group written: not given here. X1 = NCCOCCOCCOCCOCCOCCOCCOCCOCCOCCOCCOCCOCCOCCOCCOCCOCCOCCOCCOCCOCCOCCOCCOCCOCCOCCOCCOCCOCCC(=O)NC(CCC(=O)[*:1])(CCC(=O)[*:2])CCC(=O)[*:3]; X2 = CC(COCCC(=O)[*:1])(COCCC(=O)[*:2])COCCC(=O)[*:3]; PEG6 = NCCOCCOCCOCCOCCOCCOCCC(=O)O

Test [1] concerns the target T1, RSV-A F protein (Human respiratory syncytial virus A, UniProt P03420).
T1 construct: expressed in transfected cells; host or cells: 293 T cells
Kind of test: cell-based. Conditions: syncytia reduction assay using RSV-A F protein. As to the method:
The RSV Syncytia reduction assay was used to evaluate D-peptide inhibitors of RSV entry (IC50). In brief, 293 T cell were plated in a 96-well plate and a 6-well plate. The cells in the 96-well plate were co-transfected with DNA encoding the RSV F protein (or RSV G protein as a negative control) and DNA encoding firefly luciferase downstream of multiple GAL4 binding sites (CheckMate Mammalian Two-Hybrid system, Promega). These cells were designated the effector cells. The cells in the 6-well plate were transfected with GAL4:Id and VP16:MyoD fusion constructs, which interact and drive gene expression in the presence of GAL4 binding sites. These cells were the target cells. At 24 hours post-transfection, the media is removed from the effector cells and D-peptide inhibitors at 2× concentration (diluted in fresh media) were added. Also at 24 hours post-transfection, the target cells are washed with PBS, gently dissociated from the 6-well plate using Versene (0.48 mM EDTA in PBS), and overlaid (at equal volume) onto the effector cells containing 2× inhibitor. At 48 h post-transfection, the cells are lysed using Glo Lysis Buffer (Promega). Bright Glo luciferase assay substrate is added and luminescent signal from expressed luciferase is measured. Luciferase is only expressed in effector cells that fuse (form syncytia) with target cells.

Test [2] addresses T2, RSV-A/IZN45 (Human respiratory syncytial virus A, UniProt P03420).
T2 construct: N-trimer Mimics Synthesized; made in house; host or cells: chemical peptide synthesis
Description: SPR binding to RSV-A IZN45 N-trimer mimic. From the text: (§1) IZN45 N-trimer mimic comprises the IZ domain, a highly soluble, designed coiled-coil that helps solubilize the N-trimer, along with the C-terminal (bottom) 45 residues of the RSV N-trimer. IZN45 encompasses the full ordered portion of the N-trimer except for three N-terminal residues (removed to maintain a continuous heptad repeat with the IZ domain). The interactions between 35-residue RSV C-peptides, T108 and T118 (Lambert et al., 1996, Proc. Natl. Acad. Sci. USA 93:2186-2191), and IZN45 was examined by surface plasmon resonance (SPR). SPR is a gold standard assay to measure the kinetics and affinity of biological interactions. […] The Biotinylated L-form of RSV target IZN45 was captured onto one lane of a NeutrAvidin coated SPR chip. A mutant version of IZN45 containing four mutated residues along the N-trimer groove designed to disrupt binding (IZN45 Full Mut, negative control) was captured onto a separate lane of the NeutrAvidin chip. T118, corresponding to the C-terminal portion of the RSV F ectodomain, which is known to interact with the RSV N-trimer groove, was flowed over the various surfaces. […] The surfaces were regenerated with a detergent (0.1% SDS) after each injection of analyte. Various concentrations of T118 were measured in duplicate or triplicate injections. D-peptide interactions with IZN45 and IZN45-Full Mut surfaces were also measured using this method.
(§2) Peptides from the ‘winning’ phage clones from each library were synthesized as D-peptides. If solubility of the peptides was limited, N- or C-terminal charged residue(s) (e.g., lysine) were attached as necessary as previously described for HIV peptides in Eckert et al., 1999, Cell 99:103-15, incorporated by reference in its entirety. Binding affinity and kinetics of the D-peptide inhibitors to the IZN45 and IZN45 mutants was characterized by SPR (Biacore 3000), using methods as described in Welch et al., 2007, Proc. Natl. Acad. Sci. USA 104:16828-33, incorporated by reference in its entirety.
(In general: Surface plasmon resonance follows binding to a sensor surface in real time, without labels.)

The target of test [3] is T3, RSV-B/IZN45 (Human respiratory syncytial virus B, UniProt O36634).
T3 construct: N-trimer Mimics Synthesized; made in house; host or cells: chemical peptide synthesis
Kind of test: biochemical. Type of test: binding.
Description: as §1, §2

Where [4] appears, read: Kd, synthesized peptide, RSV-A/IZN45, KD determined by SPR.
Where [5] appears, read: Kd, subsequent trimer/compound made from peptide, RSV-A/IZN45, SPR.
[6] abbreviates: synthesized peptide, RSV-B/IZN45, KD determined by SPR.

T2 sequence (P03420 163-207, added parts left off): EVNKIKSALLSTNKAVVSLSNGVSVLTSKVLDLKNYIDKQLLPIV
T3 sequence (O36634 163-207, added parts left off): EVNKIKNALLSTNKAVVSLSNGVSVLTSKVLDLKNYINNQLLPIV
T1 sequence (P03420 137-574): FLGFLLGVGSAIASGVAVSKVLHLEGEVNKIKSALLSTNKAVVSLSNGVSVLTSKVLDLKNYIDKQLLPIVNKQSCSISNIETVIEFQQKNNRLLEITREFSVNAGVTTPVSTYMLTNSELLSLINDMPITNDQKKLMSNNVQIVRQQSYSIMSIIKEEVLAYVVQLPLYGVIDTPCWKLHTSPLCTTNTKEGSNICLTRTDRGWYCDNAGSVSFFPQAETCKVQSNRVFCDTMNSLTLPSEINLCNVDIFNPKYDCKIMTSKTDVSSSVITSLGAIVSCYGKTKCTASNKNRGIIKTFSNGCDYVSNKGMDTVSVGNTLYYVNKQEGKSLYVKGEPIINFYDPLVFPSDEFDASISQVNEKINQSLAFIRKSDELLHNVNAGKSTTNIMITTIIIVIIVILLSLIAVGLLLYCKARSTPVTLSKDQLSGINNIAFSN
T1 sequence (P03420 26-109): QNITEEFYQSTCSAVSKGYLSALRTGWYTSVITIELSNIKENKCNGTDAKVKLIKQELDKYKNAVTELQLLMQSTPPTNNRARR

The IC50 is the concentration at which inhibition is half-maximal. Lower therefore signals greater potency. As for `CC(=O)N[C@H](CCCCN)C(=O)NCC(=O)NCC(=O)N[C@H](C)C(=O)N[C@@H]1CSSC[C@H](C(=O)N[C@H](C)C(=O)N[C@H](C)C(N)=O)NC(=O)[C@@H](Cc2c[nH]c3ccccc23)NC(=O)[C@@H](CC(=O)O)NC(=O)[C@@H](CC(C)C)NC(=O)[C@@H](CC(C)C)NC(=O)[C@@H](Cc2c[nH]c3ccccc23)NC(=O)[C@@H](Cc2c[nH]cn2)NC(=O)[C@H]2CCCN2C(=O)[C@@H](CCC(=O)O)NC(=O)[C@@H](CC(N)=O)NC(=O)[C@@H](CCCNC(=N)N)NC1=O` [Ac-KG-RSVP20] (Ac-[dK]GG[dA][dC][dR][dN][dE][dP][dH][dW][dL][dL][dD][dW][dC][dA][dA]-NH2; disulfide 5-16), the IC50 in test [1] (IC50, synthesized peptide) amounted to 673000 nM.
In general, Kd refers to the constant that tells how readily two partners part at equilibrium. Low readings indicate tighter binding, high ones weaker binding. Take “I: H-[dK]G[dR][dW][dF][dE][dL][dP][dE][dP][dD][dW][dW]G[PEG6][dK]G[dK]G-NH2 / II: H-[dK]G[dR][dW][dF][dE][dL][dP][dE][dP][dD][dW][dW]G[PEG6] / III: H-[dK]G[dR][dW][dF][dE][dL][dP][dE][dP][dD][dW][dW]G[PEG6] (amide I:16-II:C, I:18-III:C) [KG-RSVP1-G(PEG6)-Tricasso]”: the Kd in test [2] (setting [4]) is ~20 nM.
With “I: Ac-[dK][PEG6][dD][dD]G[dS][dM][dC][dV][dN][dR][dP][dE][dW][dL][dL][dD][dW][dC]G[dT]-NH2 / II: Ac-[dK][PEG6][dD][dD]G[dS][dM][dC][dV][dN][dR][dP][dE][dW][dL][dL][dD][dW][dC]G[dT]-NH2 / III: Ac-[dK][PEG6][dD][dD]G[dS][dM][dC][dV][dN][dR][dP][dE][dW][dL][dL][dD][dW][dC]G[dT]-NH2 (linker I:1-II:1-III:1 via X1; disulfide I:8-I:19, II:8-II:19, III:8-III:19) [Ac-K(PEG6)DDG-RSVP24-trimer]”, it took 5500 nM to reach half-maximal inhibition in test [1] (IC50, subsequent trimer/compound made from peptide) (IC50). In other words, the single-digit micromolar range.
“I: H-[dR][dW][dF][dE][dL][dP][dE][dP][dD][dW][dW]G[dK][PEG6][dK]G[dK]G-NH2 / II: H-[dR][dW][dF][dE][dL][dP][dE][dP][dD][dW][dW]G[dK][PEG6] / III: H-[dR][dW][dF][dE][dL][dP][dE][dP][dD][dW][dW]G[dK][PEG6] (amide I:15-II:C, I:17-III:C) [RSVP1-GK(PEG6)-Tricasso]”: the Kd in test [2] (setting [4]) is ~20 nM.
As to “I: Ac-[dK][PEG6]G[dA][dC][dT][dN][dR][dA][dE][dW][dL][dI][dD][dW][dC][dA][dA]-NH2 / II: Ac-[dK][PEG6]G[dA][dC][dT][dN][dR][dA][dE][dW][dL][dI][dD][dW][dC][dA][dA]-NH2 / III: Ac-[dK][PEG6]G[dA][dC][dT][dN][dR][dA][dE][dW][dL][dI][dD][dW][dC][dA][dA]-NH2 (linker I:1-II:1-III:1 via X1; disulfide I:5-I:16, II:5-II:16, III:5-III:16; C-terminus assumed) [Ac-K(PEG6)-RSVP21-trimer]”, the Kd in test [3] (subsequent trimer/compound made from peptide, RSV-B/IZN45, SPR) was found to be 1.8 nM; in test [2] (setting [5]) it was 0.3 nM.
Consider `CSCC[C@@H](NC(=O)[C@@H](CO)NC(=O)CNC(=O)[C@@H](CC(=O)O)NC(=O)[C@@H](CC(=O)O)NC(=O)CCOCCOCCOCCOCCOCCOCCNC(=O)[C@@H](CCCCN)NC(C)=O)C(=O)N[C@@H]1CSSC[C@H](C(=O)NCC(=O)N[C@@H](C(N)=O)[C@H](C)O)NC(=O)[C@@H](Cc2c[nH]c3ccccc23)NC(=O)[C@@H](CC(=O)O)NC(=O)[C@@H](CC(C)C)NC(=O)[C@@H](CC(C)C)NC(=O)[C@@H](Cc2c[nH]c3ccccc23)NC(=O)[C@@H](CCC(=O)O)NC(=O)[C@H]2CCCN2C(=O)[C@@H](CCCNC(=N)N)NC(=O)[C@@H](CC(N)=O)NC(=O)[C@@H](C(C)C)NC1=O` [Ac-K(PEG6)DDG-RSVP24] (Ac-[dK][PEG6][dD][dD]G[dS][dM][dC][dV][dN][dR][dP][dE][dW][dL][dL][dD][dW][dC]G[dT]-NH2; disulfide 8-19), for which the Kd in test [3] (setting [6]) was 1800 nM; in test [2] (setting [4]), 2100 nM.
In the case of “I: [dK]G[dR][dW][dF][dE][dL][dP][dE][dP][dE][dW][dW]G[PEG6][dK]G[dK]G-NH2 / II: [dK]G[dR][dW][dF][dE][dL][dP][dE][dP][dE][dW][dW]G[PEG6] / III: [dK]G[dR][dW][dF][dE][dL][dP][dE][dP][dE][dW][dW]G[PEG6] (amide I:16-II:C, I:18-III:C) [KG-RSVP7-G(PEG6)-Tricasso]”, in test [2] (setting [4]), the dissociation constant Kd is ~20 nM.
On to “I: Ac-[dI][dS][dL][dP][dT][dP][dT][dW][dW][dP][dS][dT]GG[PEG6][dK]-NH2 / II: Ac-[dI][dS][dL][dP][dT][dP][dT][dW][dW][dP][dS][dT]GG[PEG6][dK]-NH2 / III: Ac-[dI][dS][dL][dP][dT][dP][dT][dW][dW][dP][dS][dT]GG[PEG6][dK]-NH2 (linker I:16-II:16-III:16 via X2; C-terminus assumed) [Ac-X12-45-GG(PEG6)K-trimer]”, for which the dissociation constant Kd was determined as 66 nM in test [3] (FIG. 10B, RSV-B version of IZN45); 49 nM in test [2] (KD, FIG. 10A, RSV-A version of IZN45); 53 nM in test [2] (setting [5]).
As for `CC[C@@H](C)[C@@H](NC(C)=O)C(=O)N[C@H](CO)C(=O)N[C@H](CC(C)C)C(=O)N1CCC[C@@H]1C(=O)N[C@@H](C(=O)N1CCC[C@@H]1C(=O)N[C@@H](C(=O)N[C@H](Cc1c[nH]c2ccccc12)C(=O)N[C@H](Cc1c[nH]c2ccccc12)C(=O)N1CCC[C@@H]1C(=O)N[C@H](CO)C(=O)N[C@@H](C(=O)NCC(=O)N[C@H](CCCCN)C(N)=O)[C@H](C)O)[C@H](C)O)[C@H](C)O` [Ac-X12-45-GK] (Ac-[dI][dS][dL][dP][dT][dP][dT][dW][dW][dP][dS][dT]G[dK]-NH2), the Kd in test [3] (setting [6]) is 23000 nM.
Compound `CC(C)C[C@H]1NC(=O)[C@@H](CC(=O)O)NC(=O)[C@@H](Cc2c[nH]c3ccccc23)NC(=O)[C@@H]([C@H](C)O)NC(=O)[C@@H](Cc2c[nH]cn2)NC(=O)[C@H](NC(=O)[C@@H](C)NC(=O)CN)CSSC[C@H](C(=O)N[C@H](C)C(=O)N[C@H](C)C(=O)NCC(=O)N[C@H](CCCCN)C(N)=O)NC(=O)[C@@H](C(C)C)NC(=O)[C@@H](CC(=O)O)NC(=O)[C@@H](CC(C)C)NC(=O)[C@@H](Cc2c[nH]cn2)NC(=O)[C@@H](CC(N)=O)NC1=O` [CX10C-86-GK] (H-G[dA][dC][dH][dT][dW][dD][dL][dN][dH][dL][dD][dV][dC][dA][dA]G[dK]-NH2; disulfide 3-14) showed a Kd in test [3] (setting [6]) of 350000 nM.
Same read-out and setting: the result for `CC[C@@H](C)[C@H]1NC(=O)[C@@H](CCCCN)NC(=O)[C@H](NC(=O)[C@@H](C)NC(=O)CN)CSSC[C@H](C(=O)N[C@H](C)C(=O)N[C@H](C)C(N)=O)NC(=O)[C@@H](CC(=O)O)NC(=O)[C@@H](Cc2c[nH]cn2)NC(=O)[C@@H](Cc2c[nH]c3ccccc23)NC(=O)[C@@H](Cc2c[nH]cn2)NC(=O)[C@@H](Cc2ccccc2)NC(=O)[C@@H](CC(C)C)NC(=O)[C@@H](CC(=O)O)NC(=O)[C@@H](Cc2c[nH]cn2)NC1=O` [CX10C-119] (H-G[dA][dC][dK][dI][dH][dD][dL][dF][dH][dW][dH][dD][dC][dA][dA]-NH2; disulfide 3-14) reads 100000 nM.
On to `CC[C@@H](C)[C@@H](N)C(=O)N[C@H](CO)C(=O)N[C@H](CC(C)C)C(=O)N1CCC[C@@H]1C(=O)N[C@@H](C(=O)N1CCC[C@@H]1C(=O)N[C@@H](C(=O)N[C@H](Cc1c[nH]c2ccccc12)C(=O)N[C@H](Cc1c[nH]c2ccccc12)C(=O)N1CCC[C@@H]1C(=O)N[C@H](CO)C(=O)N[C@@H](C(=O)NCC(=O)NCC(N)=O)[C@H](C)O)[C@H](C)O)[C@H](C)O` [X12-45-GG] (H-[dI][dS][dL][dP][dT][dP][dT][dW][dW][dP][dS][dT]GG-NH2), for which the affinity in test [3] (setting [6]), expressed as Kd, was 11000 nM.
